Consider one compound from patent US20150329558A1, “FUSED HETEROCYCLIC COMPOUNDS AS ION CHANNEL MODULATORS” (Gilead Sciences, Inc., priority 2011, published 2015).

Data set [1] can be described thus: Microsomal stability assay, rat. The following applies: metabolic stability, rat liver microsomes 0.5 mg/mL, substrate 3 uM. Type of data set: in vitro ADME. The procedure, abridged: (§1)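 Liver microsomes at 0.5 mg/mL protein in 100 mM KPO4 buffer, incubated with 3 uM compound and NADPH-regenerating system, run in duplicate. Samples taken at 2, 12, 25, 45 and 65 min and quenched in MeOH/ACN/water before analysis.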
On the technique in general: Liver microsomes are vesicles of endoplasmic reticulum, rich in cytochrome P450 enzymes.

The target in the next data set is T1, Human Nav1.2 (Homo sapiens, UniProt Q99250).
T1 construct: expressed in transfected cells
T1 sequence (Q99250 whole entry): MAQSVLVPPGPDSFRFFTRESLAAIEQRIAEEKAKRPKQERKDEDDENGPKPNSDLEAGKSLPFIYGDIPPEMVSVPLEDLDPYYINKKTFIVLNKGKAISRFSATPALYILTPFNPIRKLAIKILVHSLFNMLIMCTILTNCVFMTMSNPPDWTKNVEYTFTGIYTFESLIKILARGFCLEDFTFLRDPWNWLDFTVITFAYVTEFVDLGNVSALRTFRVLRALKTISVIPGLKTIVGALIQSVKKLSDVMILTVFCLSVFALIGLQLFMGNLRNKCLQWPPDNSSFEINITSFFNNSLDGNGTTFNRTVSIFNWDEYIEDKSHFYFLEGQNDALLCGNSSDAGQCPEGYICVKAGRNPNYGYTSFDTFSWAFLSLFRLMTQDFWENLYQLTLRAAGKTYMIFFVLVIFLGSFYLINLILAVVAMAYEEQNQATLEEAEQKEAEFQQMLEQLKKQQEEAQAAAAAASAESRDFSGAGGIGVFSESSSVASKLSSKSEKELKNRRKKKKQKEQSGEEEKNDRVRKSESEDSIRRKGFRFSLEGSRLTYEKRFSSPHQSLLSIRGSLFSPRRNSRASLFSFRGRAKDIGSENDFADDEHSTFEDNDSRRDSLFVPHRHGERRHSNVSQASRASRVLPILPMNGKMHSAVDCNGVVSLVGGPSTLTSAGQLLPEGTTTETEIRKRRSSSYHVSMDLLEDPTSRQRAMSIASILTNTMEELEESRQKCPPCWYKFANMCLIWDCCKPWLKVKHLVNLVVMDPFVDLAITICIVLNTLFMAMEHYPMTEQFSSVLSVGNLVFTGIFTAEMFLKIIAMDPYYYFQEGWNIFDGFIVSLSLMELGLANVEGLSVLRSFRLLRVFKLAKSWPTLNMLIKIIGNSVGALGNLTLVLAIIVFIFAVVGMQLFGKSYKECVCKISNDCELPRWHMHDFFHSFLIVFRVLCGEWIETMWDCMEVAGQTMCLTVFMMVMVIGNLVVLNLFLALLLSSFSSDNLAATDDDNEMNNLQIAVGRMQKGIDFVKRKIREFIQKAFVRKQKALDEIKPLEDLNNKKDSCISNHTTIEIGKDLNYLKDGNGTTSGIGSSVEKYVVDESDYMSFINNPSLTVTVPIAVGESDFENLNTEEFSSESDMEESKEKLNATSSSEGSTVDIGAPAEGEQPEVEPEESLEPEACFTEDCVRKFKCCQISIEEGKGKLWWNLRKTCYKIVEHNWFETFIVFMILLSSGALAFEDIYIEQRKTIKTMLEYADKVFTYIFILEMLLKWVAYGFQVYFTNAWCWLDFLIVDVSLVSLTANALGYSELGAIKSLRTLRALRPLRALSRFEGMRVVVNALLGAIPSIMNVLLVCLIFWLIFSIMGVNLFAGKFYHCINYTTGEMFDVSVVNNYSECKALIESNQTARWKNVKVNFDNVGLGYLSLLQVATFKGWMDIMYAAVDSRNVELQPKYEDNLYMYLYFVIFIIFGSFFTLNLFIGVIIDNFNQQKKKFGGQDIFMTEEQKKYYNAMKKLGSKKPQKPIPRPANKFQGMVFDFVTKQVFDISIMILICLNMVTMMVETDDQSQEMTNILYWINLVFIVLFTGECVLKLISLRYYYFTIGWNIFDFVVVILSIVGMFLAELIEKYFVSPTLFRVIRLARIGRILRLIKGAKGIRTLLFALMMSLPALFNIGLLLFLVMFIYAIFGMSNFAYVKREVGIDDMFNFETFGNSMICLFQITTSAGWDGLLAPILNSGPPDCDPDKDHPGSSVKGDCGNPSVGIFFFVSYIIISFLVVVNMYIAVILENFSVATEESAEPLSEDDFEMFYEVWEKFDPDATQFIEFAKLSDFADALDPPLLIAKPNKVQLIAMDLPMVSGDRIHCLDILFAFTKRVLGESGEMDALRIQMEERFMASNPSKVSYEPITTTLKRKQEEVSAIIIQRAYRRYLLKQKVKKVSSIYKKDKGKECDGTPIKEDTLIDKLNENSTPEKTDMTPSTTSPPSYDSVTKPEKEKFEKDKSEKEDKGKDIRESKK
Put plainly: Nav1.2 use-dependent block, whole-cell voltage clamp. It counts as cell-based. Particulars: use-dependent block 10 Hz, read-out: NAv1.2*-CHAN TEST-UDB-10 HZ-. An excerpt: Wild-type (WT) cDNA stably transfected in Chinese hamster ovary (CHO) cells is used to record INa. Unless otherwise noted, all reagents are purchased from Sigma-Aldrich (St Louis, Mo., U.S.A.).
Whole-cell voltage-clamp recordings are used to measure the biophysical properties of WT. Briefly, the pipette solution consists of (in mM) 110 CsF, 10 NaF, 20 CsCl, 2 EGTA, 10 HEPES, with a pH of 7.35 and osmolarity of 300 mOsmol/kg. The bath (control) solution contains in (mM): 145 NaCl, 4 KCl, 1.8 CaCl2, 1 MgCl2, 10 dextrose, 10 HEPES, with a pH of 7.35 and osmolarity of 310 mOsmol/kg. Cells are allowed to stabilize for 10 min after establishment of the whole-cell configuration before current is measured. Series resistance is compensated 90% to assure that the command potential is reached within microseconds with a voltage error <2 mV. Leak currents are subtracted by using an online P/4 procedure and all currents are low-pass Bessel filtered at 5 kHz and digitized at 50 kHz.
Tonic block of peak current is measured using a step to −10 mV (20 ms) from a holding potential of −120 mV (0.2 Hz). Use-dependent block of peak current is measured during pulse number 300 of a pulse train (−10 mV, 5 ms, 300 pulses, 10 Hz or 25 Hz) from a holding potential of −120 mV. Two sequential pulse train stimulations are averaged to obtain mean current traces for each recording condition, which are then used for offline subtraction and analysis.
For use-dependent studies, cells are stimulated with depolarizing pulse trains (−10 mV, 5 ms, 300 pulses, 10 and 25 Hz) from a holding potential of −120 mV. Currents are then normalized to the peak current recorded in response to the first pulse in each frequency train. For tonic block studies, peak current is evaluated in response to a 20 ms depolarization to −10 mV (0.2 Hz). Data analysis is performed using Clampfit 9.2 (Axon Instruments, Union City, Calif., U.S.A), Excel 2002 (Microsoft, Seattle, Wash., U.S.A.), and OriginPro 7.0 (OriginLab, Northampton, Mass., U.S.A) software. Results are presented as mean±SEM.
A stock solution of 10 mM compound of Formula I is prepared in 0.1 M HCl or DMSO. A fresh dilution of the compound of Formula I in the bath solution is prepared every experimental day and the pH is readjusted to 7.35 as necessary. The final DMSO concentration was kept at 0.1% in all solutions. Direct application of the perfusion solution to the clamped cell is achieved using the Perfusion Pencil system (Automate, Berkeley, Calif.). Direct cell perfusion is driven by gravity at a flow rate of 350 μL/min using a 250 micron tip. This system sequesters the clamped cell within a perfusion stream and enables complete solution exchange within 1 second. The clamped cell is perfused continuously starting immediately after establishing the whole-cell configuration. Control currents are measured during control solution perfusion.
Solutions are perfused for three minutes prior to current recordings to allow equilibrium (tonic) drug block. Tonic block of peak currents is measured from this steady-state condition. Three sequential current traces are averaged to obtain a mean current for each recording. The mean current traces are utilized for offline analysis. Use-dependent block of peak current is measured during pulse number 300 of the pulse train, (−10 mV, 5 ms, 300 pulses, 10 Hz) from a holding potential of −120 mV. Two sequential pulse train stimulations are averaged to obtain mean current traces for each recording condition, which are then used for offline subtraction and analysis. Where appropriate, concentration inhibition curves are fit with the Hill equation: I/Imax=1/[1+10̂(log IC50−I)*k], where IC50 is the concentration that produces half inhibition and k is the Hill slope factor.

Data set [2] is described as follows: Microsomal stability assay, dog. The following applies: metabolic stability, dog liver microsomes 0.5 mg/mL, substrate 3 uM. Type of data set: in vitro ADME. Put shortly: as §1
In data set [3] the target is wild-type human cardiac sodium channel, hNav1.5 (late INa) (Homo sapiens, UniProt Q14524). Nature of the data set: Late INa screening assay (QPatch whole cell patch clamp). Type of data set: cell-based. Put shortly:
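HEK293 cells stably expressing hNav1.5 alpha subunit without beta subunits, QPatch automated whole-cell clamp at 23-25° C, CsF-based internal solution pH 7.4. Late INa induced by 10 μM tefluthrin; 250 ms steps to −20 mV from −120 mV at 0.1 Hz, compounds at 1 μM. Percent block of mean current 225–250 ms into the step.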
A general note: Patch clamp records ionic current or voltage across a cell membrane.

Data set [4] in a line: Microsomal stability assay, human. Type of data set: in vitro ADME. Particulars: metabolic stability, human liver microsomes 0.5 mg/mL, substrate 3 uM. The procedure, abridged:
as §1

The target of the next data set is T2, hNav1.1 (Homo sapiens, UniProt P35498).
T2 construct: expressed in transfected cells; host or cells: HEK293, transient transfection (α1:β1:β2 = 10:1:1)
Nature of the data set: Nav1.1 use-dependent block, whole-cell voltage clamp. The following applies: use-dependent block 10 Hz, read-out: NAv1.1*-CHAN TEST-UDB-10 HZ-. It counts as cell-based.

Like-named read-outs stand apart in the source and are kept apart here.

wild-type human cardiac sodium channel, hNav1.5 (late INa), sequence (Q14524 whole entry): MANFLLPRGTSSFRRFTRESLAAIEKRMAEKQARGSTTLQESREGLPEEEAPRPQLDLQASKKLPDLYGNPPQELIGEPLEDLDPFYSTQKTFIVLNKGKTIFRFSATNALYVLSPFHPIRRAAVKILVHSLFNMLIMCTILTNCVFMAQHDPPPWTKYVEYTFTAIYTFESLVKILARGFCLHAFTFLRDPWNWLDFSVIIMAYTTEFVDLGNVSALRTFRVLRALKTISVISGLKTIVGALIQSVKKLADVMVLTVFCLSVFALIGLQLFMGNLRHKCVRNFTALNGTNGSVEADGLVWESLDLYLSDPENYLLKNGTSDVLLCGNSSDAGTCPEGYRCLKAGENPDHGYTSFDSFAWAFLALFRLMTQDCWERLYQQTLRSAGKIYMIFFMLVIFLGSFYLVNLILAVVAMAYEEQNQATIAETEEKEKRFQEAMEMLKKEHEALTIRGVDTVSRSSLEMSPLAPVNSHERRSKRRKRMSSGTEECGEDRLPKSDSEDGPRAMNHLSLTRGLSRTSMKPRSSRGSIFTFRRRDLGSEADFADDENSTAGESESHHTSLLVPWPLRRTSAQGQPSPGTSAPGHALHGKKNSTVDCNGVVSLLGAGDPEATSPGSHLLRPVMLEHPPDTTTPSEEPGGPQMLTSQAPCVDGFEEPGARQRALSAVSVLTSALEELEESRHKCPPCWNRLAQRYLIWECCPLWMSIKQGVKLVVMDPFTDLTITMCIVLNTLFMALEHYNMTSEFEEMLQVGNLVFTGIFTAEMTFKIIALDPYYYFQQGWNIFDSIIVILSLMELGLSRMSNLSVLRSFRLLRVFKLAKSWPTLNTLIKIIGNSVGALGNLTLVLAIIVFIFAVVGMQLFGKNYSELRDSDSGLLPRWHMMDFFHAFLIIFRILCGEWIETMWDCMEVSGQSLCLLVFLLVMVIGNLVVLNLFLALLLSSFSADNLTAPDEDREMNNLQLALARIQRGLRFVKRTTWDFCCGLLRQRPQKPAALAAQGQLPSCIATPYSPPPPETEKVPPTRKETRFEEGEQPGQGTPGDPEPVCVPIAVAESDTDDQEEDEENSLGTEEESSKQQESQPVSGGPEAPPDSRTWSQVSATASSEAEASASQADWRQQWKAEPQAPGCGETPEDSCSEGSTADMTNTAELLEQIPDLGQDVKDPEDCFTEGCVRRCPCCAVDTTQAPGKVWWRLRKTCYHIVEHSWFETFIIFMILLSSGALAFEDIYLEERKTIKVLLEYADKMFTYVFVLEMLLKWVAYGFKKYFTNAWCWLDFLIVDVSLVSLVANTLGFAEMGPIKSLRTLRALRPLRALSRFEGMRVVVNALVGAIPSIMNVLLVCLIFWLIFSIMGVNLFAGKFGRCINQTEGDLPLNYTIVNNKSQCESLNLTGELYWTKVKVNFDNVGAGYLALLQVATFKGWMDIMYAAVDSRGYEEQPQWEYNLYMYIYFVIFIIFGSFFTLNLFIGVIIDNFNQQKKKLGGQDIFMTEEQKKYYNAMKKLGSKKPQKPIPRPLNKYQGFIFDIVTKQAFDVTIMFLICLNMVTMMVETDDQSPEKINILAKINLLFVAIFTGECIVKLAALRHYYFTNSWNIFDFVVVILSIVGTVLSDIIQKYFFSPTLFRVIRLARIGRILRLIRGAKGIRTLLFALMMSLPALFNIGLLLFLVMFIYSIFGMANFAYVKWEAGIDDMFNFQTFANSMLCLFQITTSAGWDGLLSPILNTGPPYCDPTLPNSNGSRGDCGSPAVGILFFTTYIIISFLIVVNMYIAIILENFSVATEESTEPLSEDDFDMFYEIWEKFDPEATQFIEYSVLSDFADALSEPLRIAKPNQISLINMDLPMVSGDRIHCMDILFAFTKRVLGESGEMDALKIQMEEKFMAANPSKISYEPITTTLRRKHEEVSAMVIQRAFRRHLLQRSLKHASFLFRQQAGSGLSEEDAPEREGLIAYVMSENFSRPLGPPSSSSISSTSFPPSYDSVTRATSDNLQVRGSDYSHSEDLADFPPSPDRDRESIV

`Cc1noc(Cn2ncc3ccc(-c4ccc(OC(F)(F)F)cc4)cc3c2=O)n1` [III-2, 2-((3-methyl-1,2,4-oxadiazol-5-yl)methyl)-7-(4-(trifluoromethoxy)phenyl)phthalazin-1(2H)-one] had an MS Rat THalf in data set [1] of 222 min. Moreover, the inhibition at 1 µM on Human Nav1.2 came to 5%; in data set [3] (% inhibition at 1 μM, read-out: NAv1.5*-LATE-), 40%; in data set [3] (percent block of late INa, compound at 1 μM, 10 μM Tefluthrin, HEK293 hNav1.5, read-out: Late INa 1 μM), 40%; on hNav1.1, 27.6%. In addition, the MS Dog THalf in data set [2] came out at 68 min. Moreover, in data set [4], the MS Human THalf was 333 min.
